{"source": "patent US20180286508A1", "about": "“DETERMINATION OF FAVORABLE DATE(S) FOR THERAPEUTIC TREATMENT DELIVERY” (Mayo Foundation for Medical Education and Research, priority 2015, published 2018)", "key": {"[1]": {"test_system": "CD8+ effector T-cells and dendritic cells (DCs)", "conditions": "therapeutical doses, in vitro; cited from earlier work"}, "[2]": {"conditions": "standard TMZ doses, 200 mg/m2 daily over 5 days, cycles every 28 days; cited from earlier work"}, "[3]": {"test_system": "patients with metastatic melanoma (stage IV)", "experiment": "Phase II clinical trial MC1076 of timed administration of TMZ", "assay_type": "in vivo, human", "conditions": "for number of patients with PFS >4 months: 17 patients", "text": "Eligible patients had unresectable, histologically confirmed stage IV disease, age over 18 years, measurable disease as defined by the Response Evaluation Criteria in Solid Tumors (RECIST), Eastern Cooperative Oncology Group (ECOG) performance status of 0-2, and life expectancy≥3 months (See Table 10). Both previously untreated patients and patients who have had prior therapy for their metastatic disease (excluding prior exposure to TMZ) were eligible. All patients provided signed informed written consent, and the study was approved by the Mayo Clinic Rochester Institutional Review Board. The TMZ dose was 150 mg/m2 on days 1-5 of cycle 1 and was increased to 200 mg/m2 on days 1-5 each month for all subsequent cycles if well tolerated. Patients were treated every 28 days until progression, unacceptable toxicity or patient refusal. Prior to initiation of first chemotherapy cycle, eligible patients underwent serial daily peripheral blood testing for 10 days of 69 immune biomarkers (42 cytokines, and 27 immune cell subtypes) per time point/patient. At the end of the sample collections, all data was jointly analyzed and a day for individualized TMZ delivery was calculated according to the proposed model (below). Patients received their therapy during the time, predicted by the model. All patients were followed for clinical outcomes.\nTime-dependent profiles of blood concentration of IL-12p70, CD197/CD206, IL-1ra were built based on a series of pre-treatment measurements. The data was fitted to a sine curve and the extrapolated for a period of 10 days. Chemotherapy was initiated on the day when the extrapolated value of the combination of these immune parameters was at maximum.\nThe MC1076 study was designed to assess the anti-tumor activity of timed administration of TMZ. A two-stage phase II clinical trial design will be used to test the hypothesis that the 4 month PFS rate is at most 45% against the alternative hypothesis that the 4 month PFS rate is at least 65%. Progression-free survival was defined as the time from registration to documentation of disease progression or death without disease progression documented.\nAnalysis of infradian (multi-day) dynamics in systemic immunity of patients with metastatic melanoma. Based on data, both published and from our lab, we hypothesized that the anti-tumor systemic immune response in patients with cancer is not a static but a dynamic event. In order to study the global temporal behavior of systemic anti-tumor immunity, we conducted a phase II clinical trial (MC1076; NCT01328535). In this study, patients with metastatic melanoma underwent a period of immunological monitoring consisting of 10 daily PB collections (10 mL) over 12 days prior to initiation of therapy with TMZ. There was no blood collection on weekend days. At the end of the sample collection period, samples were batched analyzed (to minimize inter-assay variability for a given patient) for measurement of dynamic changes of plasma cytokines and immune cell subsets using established, standardized, and Good Laboratory Practice (GLP)-validated methodology in our laboratory.^35 Time-dependent profiles of immune variables (cytokines and immune cell subsets) were then analyzed and an optimal day for initiation of TMZ therapy was prospectively computed by the algorithm described below. […]"}, "[4]": {"test_system": "non proliferating peripheral blood lymphocytes", "conditions": "therapeutical doses, in vitro; cited from earlier work"}, "[5]": {"test_system": "patients with unresectable stage IV malignant melanoma", "experiment": "Clinical trial of timed TMZ chemotherapy (timed on CRP oscillation) in stage IV melanoma patients", "assay_type": "in vivo, human", "text": "In an example clinical trial described herein, the patient population included patients with unresectable stage IV malignant melanoma. Eligible patients had unresectable, histologically confirmed stage IV disease, age over 18 years, measurable disease as defined by the Response Evaluation Criteria in Solid Tumors (RECIST), Eastern Cooperative Oncology Group (ECOG) performance status (PS) of 0-2, and life expectancy ≥3 months. Both newly diagnosed, previously untreated patients, as well as patients who have had prior therapy for their metastatic disease were enrolled.\nTreatment was initiated with temozolomide (TMZ) 150 mg/m^2 on days 1-5 on cycle 1 and the dose was increased to 200 mg/m^2 for all subsequent cycles if tolerated. Patients were treated every 4 weeks until progression, unacceptable toxicity or patient refusal. Prior to initiation of first chemotherapy cycle, eligible patients underwent peripheral blood testing for immunological biomarkers (immune variables) every 2-3 days for a period of two weeks. The blood samples were tested for a total of 52 variables; that is, 52 measurements of cytokine concentrations and cell counts in blood samples.\nThe time series of six CRP concentration measurements was fitted to a sine curve. The curve was then extrapolated for two periods and the next consecutive peaks of CRP concentration were predicted. Based on the periodicity of CRP oscillations, TMZ chemotherapy was initiated prior to the estimated time of the next CPR peak, or on day 14 post-registration if the peak could not be identified.\nThe purpose of the curve fitting analysis is to determine whether any of the measured immune variables change in a predictable fashion following a cyclical pattern (dynamic equilibrium of immunity and cancer). Therefore, the goal of the curve fitting analysis is to assess whether concentrations of plasma cytokines/chemokines and immune cells fluctuate, and if so, to determine whether these fluctuations follow a mathematically predictable cyclical pattern. To that end, the plasma levels for the 52 immune variables ([…] different cytokines/chemokines/growth factors and the percentage of 22 immune cell subsets) in serial blood samples collected every 2-3 days prior to initiation of TMZ therapy were measured in 10 patients with metastatic malignant melanoma. […] Technical reproducibility was assessed by the coefficient of variation among duplicates (average coefficient of variation was 5.13% for 1593 data points)."}, "[6]": {"conditions": "LMR <1 on the day of TMZ initiation"}, "[7]": {"conditions": "LMR >1 on the day of TMZ initiation"}}, "note": "Values joined by “and” are separate entries in the source; they are usually repeats but may differ in a detail not shown here. Equal values may be shown once.", "data": [{"smiles": "Cn1nnc2c(C(N)=O)ncn2c1=O", "note": "[TMZ, temozolomide]", "values": [{"measurement": "impairment of the function of CD8+ effector T-cells and dendritic cells", "setting": "[1]", "value": "did not impair"}, {"measurement": "serum concentrations", "setting": "[2]", "value": "up to 50 μM"}, {"measurement": "number of patients with PFS <4 months", "setting": "[3]; [6]", "value": 7}, {"measurement": "number of patients with PFS >4 months", "setting": "[3]; [6]", "value": 1}, {"measurement": "number of patients with PFS <4 months", "setting": "[3]; [7]", "value": 3}, {"measurement": "number of patients with PFS >4 months", "setting": "[3]; [7]", "value": 6}, {"measurement": "PFS", "setting": "[3]; Table 11, one line per patient, 24 patients, time from registration to progression, CR = complete response", "value": "644 days and 242 days and 184 days and 47 days and 83 days and 301 days and 136 days and 752 days and 102 days and 78 days and 39 days and 107 days and 72 days (2×) and 53 days and 48 days and 80 days and 73 days and 130 days and 77 days and 133 days and 198 days"}, {"measurement": "impairment of non proliferating peripheral blood lymphocytes", "setting": "[4]", "value": "did not impair"}, {"measurement": "PFS", "setting": "[5]; Table 4, one line per patient, 8 patients with metastatic cutaneous melanoma, TMZ 150 to 200 mg/m^2 days 1-5 every 4 weeks", "value": "70 days and 68 days and 37 days and 916 days and 748 days and 132 days and 91 days and 77 days"}, {"measurement": "PFS", "setting": "[5]; Table 6, one line per patient, same 8 melanoma patients", "value": "37 days and 91 days and 32 days and 77 days and 916 days and 841 days and 68 days and 70 days"}, {"measurement": "average PFS", "setting": "[5]; four patients with sum of ranks of IL12p70 and CD197/CD206 above 15", "value": 68, "unit": "days"}, {"measurement": "average PFS", "setting": "[5]; four patients with sum of ranks of IL12p70 and CD197/CD206 below 15", "value": 466, "unit": "days"}, {"measurement": "PFS", "setting": "[5]; two patients with disorganized (non-curve-fitting) anti-tumor immune responses", "value": "71 days and 74 days"}]}]}
